Key:
Experiment in all cases: relative viability (nuclei count vs DMSO), 5 days (fraction); higher = more cells survive
Erlotinib + Tozasertib = compound: C#Cc1cccc(Nc2ncnc3cc(OCCOC)c(OCCOC)cc23)c1 [Erlotinib] + Cc1cc(Nc2cc(N3CCN(C)CC3)nc(Sc3ccc(NC(=O)C4CC4)cc3)n2)n[nH]1 [Tozasertib] (partner 0.1 µM)
Method in brief: (§1)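 Lung cancer cell lines were seeded in 1536-well plates and dosed by pin tool the next day, with either a single drug or a fixed anchor-drug dose combined with five library-drug doses (not always all listed) spaced in √10 steps. Five days later, one step fixed the cells and stained their nuclei (final 0.05% Triton X-100, 1% formaldehyde, 1 ug/ml Hoechst), and nuclei were counted on 4× images. Relative viability is the nuclei count in treated wells divided by the count in vehicle wells, and each value is the median of duplicate plates.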

AT9283 + Bortezomib = compound: O=C(Nc1c[nH]nc1-c1nc2ccc(CN3CCOCC3)cc2[nH]1)NC1CC1 [AT9283] + CC(C)C[C@H](NC(=O)[C@H](Cc1ccccc1)NC(=O)c1cnccn1)B(O)O [Bortezomib] (partner 0.002 µM)
Method in brief: as §1

AT9283 + Foretinib = compound: O=C(Nc1c[nH]nc1-c1nc2ccc(CN3CCOCC3)cc2[nH]1)NC1CC1 [AT9283] + COc1cc2c(Oc3ccc(NC(=O)C4(C(=O)Nc5ccc(F)cc5)CC4)cc3F)ccnc2cc1OCCCN1CCOCC1 [Foretinib] (partner 0.25 µM)
Method in brief: as §1

AT9283 + Tozasertib = compound: O=C(Nc1c[nH]nc1-c1nc2ccc(CN3CCOCC3)cc2[nH]1)NC1CC1 [AT9283] + Cc1cc(Nc2cc(N3CCN(C)CC3)nc(Sc3ccc(NC(=O)C4CC4)cc3)n2)n[nH]1 [Tozasertib] (partner 0.1 µM)
Method in brief: as §1

AT9283 + Olaparib = compound: O=C(Nc1c[nH]nc1-c1nc2ccc(CN3CCOCC3)cc2[nH]1)NC1CC1 [AT9283] + O=C(c1cc(Cc2n[nH]c(=O)c3ccccc23)ccc1F)N1CCN(C(=O)C2CC2)CC1 [Olaparib] (partner 8 µM)
Method in brief: as §1

Cell Line: NCI-H441
- relative viability (Erlotinib + Tozasertib; first compound 0.02 µM): 0.631
- relative viability (Erlotinib + Tozasertib; first compound 0.2 µM): 0.717
- relative viability (Erlotinib + Tozasertib; first compound 0.6325 µM): 0.574
- relative viability (Erlotinib + Tozasertib; first compound 2 µM): 0.473
- relative viability (AT9283 + Bortezomib; first compound 0.003 µM): 0.406
- relative viability (AT9283 + Bortezomib; first compound 0.03 µM): 0.442
- relative viability (AT9283 + Bortezomib; first compound 0.09487 µM): 0.536
- relative viability (AT9283 + Bortezomib; first compound 0.3 µM): 0.381
- relative viability (AT9283 + Foretinib; first compound 0.003 µM): 1.02
- relative viability (AT9283 + Foretinib; first compound 0.03 µM): 0.847
- relative viability (AT9283 + Foretinib; first compound 0.09487 µM): 0.396
- relative viability (AT9283 + Foretinib; first compound 0.3 µM): 0.301
- relative viability (AT9283 + Tozasertib; first compound 0.003 µM): 0.707
- relative viability (AT9283 + Tozasertib; first compound 0.03 µM): 0.715
- relative viability (AT9283 + Tozasertib; first compound 0.09487 µM): 0.361
- relative viability (AT9283 + Tozasertib; first compound 0.3 µM): 0.31
- relative viability (AT9283 + Olaparib; first compound 0.003 µM): 0.557
- relative viability (AT9283 + Olaparib; first compound 0.03 µM): 0.504
- relative viability (AT9283 + Olaparib; first compound 0.09487 µM): 0.417
- relative viability (AT9283 + Olaparib; first compound 0.3 µM): 0.319

— the supplement of paper PMC10307832
